Measured values as given in ChEMBL document CHEMBL4715892, “Synthesis of novel quinoxaline-alkynyl derivatives and their anti-Mycobacterium tuberculosis activity” (Bioorg Med Chem Lett, 2021).

How the values were obtained:
[1] = test system: Mycobacterium tuberculosis; experiment: Antitubercular activity against Mycobacterium tuberculosis H37Rv assessed as reduction in microbial growth after 7 to 14 days by broth dilution method; type: functional; conditions: time 7-14 day
RAW264.7 = experiment: Cytotoxicity against mouse RAW264.7 cells assessed as reduction in cell viability up to 24 hrs by MTT assay; type: cell-based; conditions: RAW264.7, 24 h
[2] = Selectivity index ratio of IC50 for cytotoxicity against mouse RAW264.7 cells to MIC90 for antitubercular activity against Mycobacterium tuberculosis H37Rv; type: toxicity, cell-based; conditions: read-out: Selectivity Index

| Compound | MIC90 [1] | IC50 (RAW264.7) | selectivity ratio [2] |
| --- | --- | --- | --- |
| O=C(OCC#Cc1cnc2cc([N+](=O)[O-])ccc2n1)c1ccccc1 | 93.8 µM | 248 µM | 2.6 |
| CS(=O)(=O)OCC#Cc1cnc2cc(Cl)ccc2n1 | 54.5 µM |  |  |
| CC(=O)OCC#Cc1cnc2ccccc2n1 | 18.1 µM | 47.7 µM | 2.64 |
| OCC#Cc1cnc2cc(Cl)ccc2n1 | 15.9 µM | 35.3 µM | 2.22 |
| O=C(OCC#Cc1cnc2cc([N+](=O)[O-])ccc2n1)c1cccs1 | 2.74 µM | 19.9 µM | 7.24 |
| CC(=O)OCC#Cc1cnc2cc([N+](=O)[O-])ccc2n1 | 1.8 µM | 13.2 µM | 7.3 |
| O=C(OCC#Cc1cnc2ccccc2n1)c1ccccc1 | 16.2 µM | 55.6 µM | 3.4 |
| OCC#Cc1cnc2ccccc2n1 | 52.7 µM | 43.7 µM | 0.83 |
| O=CC#Cc1cnc2cc(Cl)ccc2n1 | 1.13 µM | 4.6 µM | 4.1 |
| O=C(OCC#Cc1cnc2cc(Cl)ccc2n1)c1cccs1 | 11.2 µM | 11.3 µM | 1 |
| CO[C@H]1/C=C/O[C@@]2(C)Oc3c(C)c(O)c4c(O)c(c(/C=N/N5CCN(C)CC5)c(O)c4c3C2=O)NC(=O)/C(C)=C\C=C\[C@H](C)[C@H](O)[C@@H](C)[C@@H](O)[C@@H](C)[C@H](OC(C)=O)[C@@H]1C [RIFAMPIN] | 0.01 µM |  |  |
| O=[N+]([O-])c1ccc2nc(C#CCO)cnc2c1 | 4.26 µM | 31.2 µM | 7.3 |
| CS(=O)(=O)OCC#Cc1cnc2ccccc2n1 | 6.47 µM | 36.8 µM | 5.7 |
| O=CC#Cc1cnc2ccccc2n1 | 4.55 µM | 316 µM | 69.5 |
| CC(=O)OCC#Cc1cnc2cc(Cl)ccc2n1 | 16.5 µM | 20.2 µM | 1.22 |
| O=C(OCC#Cc1cnc2ccccc2n1)c1cccs1 | 27 µM | 39 µM | 1.44 |
| CS(=O)(=O)OCC#Cc1cnc2cc([N+](=O)[O-])ccc2n1 | 1.59 µM | 13.5 µM | 8.5 |
| O=C(OCC#Cc1cnc2cc(Cl)ccc2n1)c1ccccc1 | 57.6 µM | 82.3 µM | 1.43 |
